Measurements as given in article PMC5011342, “A high throughput drug screening assay to identify compounds that promote oligodendrocyte differentiation using acutely dissociated and purified oligodendrocyte precursor cells” (BMC Research Notes, 2016).
Like-named read-outs stand apart in the source and are kept apart here. Non-standard residues stand in square brackets, D forms with d. Residues, ends and D or L forms follow the SMILES beside them. pGlu = O=C1CC[C@@H](C(=O)O)N1; Thz = O=C(O)[C@@H]1CSCN1

Key:
[1] = test system: acutely dissociated and purified rat OPCs; assay: Acute OL differentiation assay (MBP expression/cell, immunofluorescent image quantification); type: cell-based; conditions: sheet "All OLga data"
How it was run: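 This acute differentiation assay used purified rat OPCs from postnatal day 6–7 pups, seeded into PDL/laminin-coated 96-well plates in differentiation medium lacking PDGF and FGF. Compounds were applied in quadruplicate after a 1–2 h preincubation at 37 °C, 10 % CO2, with 0.1 % DMSO negative and 40 ng/ml T3 positive controls in eight wells. After fixation on DIV4, anti-MBP immunofluorescence images yielded MBP expression/cell.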

expanded OPCs = assay: cells; conditions: for viability at 0.1 µM / viability at 1 µM / viability at 10 µM: Rattus norvegicus, 72 h
How it was run: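 Toxicity screen: compounds added at 0.1, 1 and 10 µM to PDGF-AA-expanded OPCs in 96-well plates, 3-day incubation at 37 °C, 10% CO2, then alamarBlue 1:10 for 4 h with fluorescence readout. Results set screening doses of 10/2, 2/0.4 or 0.4/0.08 µM.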

[2] = Rattus norvegicus, 2 uM test compound, relative to quetiapine, read-out: OL differentiation, 2 uM (% Quet)
[3] = Rattus norvegicus, 10 uM test compound, relative to quetiapine, read-out: OL differentiation, 10 uM (% Quet)
[4] = Rattus norvegicus, test compound at 2 uM, MBP expression relative to quetiapine, NCC library screen, read-out: 2 uM (% Quet)
[5] = Rattus norvegicus, test compound at 10 uM, MBP expression relative to quetiapine, NCC library screen, read-out: 10 uM (% Quet)
[6] = read-out: 0.1 µM (% DMSO), alamarBlue viability of expanded OPCs, compound at 0.1 µM, sheet All Tox data
[7] = read-out: 1 µM (% DMSO), alamarBlue viability of expanded OPCs, compound at 1 µM, sheet All Tox data
[8] = read-out: 10 µM (% DMSO), alamarBlue viability of expanded OPCs, compound at 10 µM, sheet All Tox data
[9] = alamarBlue viability of expanded OPCs, compound at 0.1 µM, relative to DMSO control
[10] = alamarBlue viability of expanded OPCs, compound at 1 µM, relative to DMSO control
[11] = alamarBlue viability of expanded OPCs, compound at 10 µM, relative to DMSO control
[12] = Rattus norvegicus, test compound at 2 uM, NCC library screen, relative to quetiapine, read-out: 2 uM (% Quet)
[13] = read-out: 0.1 µM (% DMSO), alamarBlue viability, NCC library compound at 0.1 µM, sheet "All Tox data"
[14] = read-out: 1 µM (% DMSO), alamarBlue viability, NCC library compound at 1 µM, sheet "All Tox data"
[15] = read-out: 10 µM (% DMSO), alamarBlue viability, NCC library compound at 10 µM, sheet "All Tox data"
[16] = Rattus norvegicus, test compound at 10 uM, NCC library screen, relative to quetiapine, read-out: 10 uM (% Quet)

NNCCc1ccccc1 [Phenelzine] showed an activation at 2 µM [1, 2] of 18%, an activation at 10 µM [1, 3] of 18.6% and an activation at 2 µM [1, 4] of 3.7%. For the same compound, the activation at 10 µM [1, 5] was -4.2%, the viability at 0.1 µM (expanded OPCs; [6]) was 78.4% and the viability at 1 µM (expanded OPCs; [7]) was 80.2%. For the same compound, the viability at 10 µM (expanded OPCs; [8]) was 93.1%, the “0.1 µM (% DMSO)” value (expanded OPCs; [9]) was 94.0 % DMSO and the “1 µM (% DMSO)” value (expanded OPCs; [10]) was 95.0 % DMSO. For the same compound, the “10 µM (% DMSO)” value (expanded OPCs; [11]) was 87.1 % DMSO.
c1ccc2c(c1)Nc1ccccc1S2 [Phenothiazine] was tested, and the activation at 0.4 µM ([1]; Rattus norvegicus, test compound at 0.4 uM, NCC library screen, relative to quetiapine, read-out: 0.4 uM (% Quet)) was 4%, the activation at 2 µM [1, 12] was -12.1% and the viability at 0.1 µM (expanded OPCs; [13]) was 82.8%. For the same compound, the viability at 1 µM (expanded OPCs; [14]) was 85.1% and the viability at 10 µM (expanded OPCs; [15]) was 51.9%.
In the case of CC(COc1ccccc1)N(CCCl)Cc1ccccc1 (centres unmarked) [Phenoxybenzamine], the activation at 2 µM [1, 12] was -11%, the activation at 10 µM [1, 16] was 35.4% and the “0.1 µM (% DMSO)” value (expanded OPCs; [9]) was 109.6 % DMSO. The “1 µM (% DMSO)” value (expanded OPCs; [10]) was 116.7 % DMSO and the “10 µM (% DMSO)” value (expanded OPCs; [11]) was 142.4 % DMSO.
NC(=O)OCCCc1ccccc1 [Phenprobamate] showed an activation at 2 µM [1, 2] of 26.9%, an activation at 10 µM [1, 3] of 12.1% and a viability at 0.1 µM (expanded OPCs; [6]) of 96%. The viability at 1 µM (expanded OPCs; [7]) was 95.1% and the viability at 10 µM (expanded OPCs; [8]) was 92.7%.
Cc1ccc(N(CC2=NCCN2)c2cccc(O)c2)cc1 [Phentolamine] was tested, and the activation at 2 µM [1, 4] was -17.9%, the activation at 10 µM [1, 5] was -82.7% and the “0.1 µM (% DMSO)” value (expanded OPCs; [9]) was 93.8 % DMSO. For the same compound, the “1 µM (% DMSO)” value (expanded OPCs; [10]) was 88.6 % DMSO and the “10 µM (% DMSO)” value (expanded OPCs; [11]) was 62.0 % DMSO.
O=C1NC(=O)C(c2ccccc2)(c2ccccc2)N1 [Phenytoin] was tested, and the activation at 2 µM [1, 4] was -25.2%, the activation at 10 µM [1, 5] was -26.2% and the “0.1 µM (% DMSO)” value (expanded OPCs; [9]) was 88.8 % DMSO. For the same compound, the “1 µM (% DMSO)” value (expanded OPCs; [10]) was 86.9 % DMSO and the “10 µM (% DMSO)” value (expanded OPCs; [11]) was 83.9 % DMSO.
In the case of CC1=C(C/C=C(\C)CCC[C@H](C)CCC[C@H](C)CCCC(C)C)C(=O)c2ccccc2C1=O [Phylloquinone], the “2 uM (% Quet)” value ([1]; test compound at 2 uM, NCC library screen, relative to quetiapine) was 17.4 % Quet, the “10 uM (% Quet)” value ([1]; test compound at 10 uM, NCC library screen, relative to quetiapine) was -25.4 % Quet and the “0.1 µM (% DMSO)” value (expanded OPCs) was 96.6 % DMSO. The “1 µM (% DMSO)” value (expanded OPCs) was 89.8 % DMSO and the “10 µM (% DMSO)” value (expanded OPCs) was 87.4 % DMSO.
In the case of CNC(=O)Oc1ccc2c(c1)[C@]1(C)CCN(C)[C@@H]1N2C [Physostigmine], the activation at 2 µM [1, 2] was -4.5%, the activation at 10 µM [1, 3] was 0.12% and the viability at 0.1 µM (expanded OPCs; [6]) was 105%. It also gave a viability at 1 µM (expanded OPCs; [7]) of 96.7% and a viability at 10 µM (expanded OPCs; [8]) of 78%.
Compound CC(C)(O)[C@@H]1[C@H]2OC(=O)[C@@H]1[C@]1(O)C[C@H]3O[C@]34C(=O)O[C@H]2[C@]14C [Picrotin] has an activation at 2 µM [1, 2] of 6.5%, an activation at 10 µM [1, 3] of 5.9% and a viability at 0.1 µM (expanded OPCs; [6]) of 84.8%. The viability at 1 µM (expanded OPCs; [7]) was 84.6% and the viability at 10 µM (expanded OPCs; [8]) was 85.6%.
With O=C1CC[C@@H](C(=O)N2CSC[C@H]2C(=O)O)N1 [Pidotimod] ([pGlu]-[Thz]-OH) the activation at 2 µM [1, 2] was 7.5%, the activation at 10 µM [1, 3] was -1.8% and the viability at 0.1 µM (expanded OPCs; [6]) was 96.9%. It also gave a viability at 1 µM (expanded OPCs; [7]) of 105% and a viability at 10 µM (expanded OPCs; [8]) of 104%.
Work on CC[C@@H]1C(=O)OC[C@@H]1Cc1cncn1C [Pilocarpine] yielded an activation at 2 µM [1, 2] of 0.3%, an activation at 10 µM [1, 3] of 6.6% and a viability at 0.1 µM (expanded OPCs; [6]) of 90.2%. For the same compound, the viability at 1 µM (expanded OPCs; [7]) was 101% and the viability at 10 µM (expanded OPCs; [8]) was 90.1%.
CC(N/C(=N\C#N)Nc1ccncc1)C(C)(C)C (centres unmarked) [Pinacidil] gave an activation at 2 µM [1, 12] of -0.57%, an activation at 10 µM [1, 16] of 26.1% and a viability at 0.1 µM (expanded OPCs; [13]) of 90.8%. The viability at 1 µM (expanded OPCs; [14]) was 98.8% and the viability at 10 µM (expanded OPCs; [15]) was 93.6%.
With CC(C)NCC(O)COc1cccc2[nH]ccc12 (centres unmarked) [Pindolol] the activation at 2 µM [1, 12] was -2.9%, the activation at 10 µM [1, 16] was -35.6% and the “0.1 µM (% DMSO)” value (expanded OPCs; [9]) was 88.9 % DMSO. The “1 µM (% DMSO)” value (expanded OPCs; [10]) was 89.4 % DMSO and the “10 µM (% DMSO)” value (expanded OPCs; [11]) was 86.5 % DMSO.
In the case of CCc1ccc(CCOc2ccc(CC3SC(=O)NC3=O)cc2)nc1 (centres unmarked) [Pioglitazone], the activation at 2 µM [1, 2] was 13.3%, the activation at 10 µM [1, 3] was 55.6% and the viability at 0.1 µM (expanded OPCs; [6]) was 96.9%. It also gave a viability at 1 µM (expanded OPCs; [7]) of 120% and a viability at 10 µM (expanded OPCs; [8]) of 164%.
In the case of CCN1CCN(C(=O)N[C@@H](C(=O)N[C@@H]2C(=O)N3[C@@H]2SC(C)(C)[C@@H]3C(=O)O)c2ccccc2)C(=O)C1=O [Piperacillin], the activation at 2 µM [1, 12] was 2%, the activation at 10 µM [1, 16] was -7.9% and the “0.1 µM (% DMSO)” value (expanded OPCs; [9]) was 89.0 % DMSO. The “1 µM (% DMSO)” value (expanded OPCs; [10]) was 88.3 % DMSO and the “10 µM (% DMSO)” value (expanded OPCs; [11]) was 88.0 % DMSO.
